# Values of other authors, collected in publication PMC4862372 (Bioorganic & medicinal chemistry, 2016).
# Test system: Huh7 cells
# Details: high-throughput screen performed by GNF
compound,measurement,value
"O=C(NCCc1nc(-c2ccccc2)cs1)c1ccccc1 [Compound 1, 2-(2-Benzamido)ethyl-4-phenylthiazole]",Toxicity to mammalian (Huh7) cells,non-toxic
